Measured values published in patent publication US20160038482A1 (CHANRX CORPORATION, priority 2013, published 2016).
Where two headings read alike, the source gives them in different places.

What was measured:
[1] = Example 1: plasma concentrations of vanoxerine and metabolites after a 300 mg dose; type: in vivo, human; conditions: low concentration group, any time point
Experimental: Each patient gave samples before administration of their dose, and then again at nine further time points, 30 minutes after administration, 1, 2, 3, 4, 6, 8, 12, and 24 hours post administration.

[2] = pharmacokinetic parameters from tests in dogs; type: in vivo; conditions: dog, plasma
Text: Vanoxerine is primarily eliminated from the body in urine, bile, and feces. Indeed, a substantial amount of the drug is expelled, unabsorbed into the feces. […] However, the long half-life of the drug may actually be utilized to minimize the continuous or regular dosing of the drug.

cardiac arrhythmia = type: in vivo, human; conditions: second patient, supraventricular tachycardia, 2 x 200 mg, after first dose
[3] = Example 3: daily doses for 11 consecutive days, PK and hemodynamics; type: in vivo, human; conditions: for half-life / Cmax: human, plasma, 11 days; for half-life: read-out: PK Data (Mean +/− SD) T1/2 (converted); for Cmax: read-out: PK Data (Mean +/− SD) CMax
[4] = Example 4: daily doses for 14 days in healthy patients; type: in vivo, human
Experimental: A standardized meal was served 15 minutes prior to each dosing.

[5] = Example 5: daily doses for 7 days; type: in vivo, human
[6] = tested on: recent onset symptomatic AF/AFL; assay: Example 6: conversion of recent onset AF/AFL, placebo-controlled double-blind; type: in vivo, human; conditions: for Conversion of Atrial Flutter, Conversion, %: pure atrial flutter N=4, any time within 24 hours; for conversion: all doses
Experimental: The vanoxerine or identical appearing placebo was randomly assigned and administered in a double-blinded fashion. Definition of “pure” atrial flutter: only Atrial Flutter (no AF) seen at -30, -15, and 0 time points. Conversion at any time within 24 hours.

[7] = Example 6: adverse events; type: in vivo, human
Text: The vanoxerine or identical appearing placebo was randomly assigned and administered in a double-blinded fashion.

[8] = multiple daily dosing: hemodynamic effects; type: in vivo, human
Text: However, control and prevention of events of cardiac arrhythmia are important to these patients to prevent future re-occurrences and the deleterious effects and morbidity.

[9] = healthy subjects, cited from earlier work

In the case of `Fc1ccc(C(OCCN2CCN(CCCc3ccccc3)CC2)c2ccc(F)cc2)cc1` [Vanoxerine, 1-[2-[bis(4-fluorophenyl)methoxy]ethyl]-4-(3-phenylpropyl)piperazine], the “plasma levels (highest reached)” value [1] is reported as ~40 ng/mL, the Tmax ([2]; oral) is reported as ~3 h and the bioavailability ([2]; oral, read-out: systemic bioavailability) is reported as 23%. The half-life ([2]; read-out: T1/2 (elimination from the plasma) (converted)) was 22 h, the “time of conversion to normal sinus rhythm” value (cardiac arrhythmia) was “about 6 hours” and the plasma levels detectability ([3]; 25 mg daily) was “not detectable after 8 hours”. For the same compound, the plasma levels detectability ([3]; 50, 75, and 100 mg daily) was “detectable at 24 hours”, the “time to steady state” value ([3]; 50, 75, and 100 mg daily) was ≤ 8 days and the “heart rate and systolic blood pressure” value ([3]; 75 and 100 mg daily doses) was “increased slightly in most subjects”. For the same compound, the PK linearity ([3]; across 50, 75 and 100 mg doses) was “linear and dose proportional”, the half-life ([3]; 50 mg daily) was 49.4 h and the Cmax ([3]; 75 mg daily) was 27.4 ng/mL. For the same compound, the half-life ([3]; 75 mg daily) was 52.5 h, the Cmax ([3]; 100 mg daily) was 40.2 ng/mL and the half-life ([3]; 100 mg daily) was 15.4 h. For the same compound, the “Cmax, ss, and AUC0-24ss inter-subject variability” value ([3]; steady state) was 55-85%, the “half-life of the drug” value ([3]; when daily doses are given) was “increased half-life” and the “time to steady state serum levels” value ([4]; 25, 75, and 125 mg daily for 14 days) was 9 to 11 days. For the same compound, the adverse events ([4]; 25, 75, and 125 mg daily for 14 days, healthy patients, after standardized meal) was “No significant adverse events”, the “steady state serum levels, dose proportionality” value ([4]; higher doses compared with the lower doses) was “disproportionately and statistically greater levels at higher doses” and the “systolic blood pressure and heart rate” value ([5]; 100 mg daily for 7 days) was “increases in systolic blood pressure and heart rate were seen”. The “systolic blood pressure and heart rate” value ([5]; 150 mg daily for 7 days) was “increases in systolic blood pressure and in heart rate”, the “time to steady state levels” value ([5]; 50, 100, and 150 mg daily, all patients) was “within one week” and the Percent conversion ([6]; 200 mg (22), 0-4 hr) was 18%. The Percent conversion ([6]; 200 mg (22), 0-8 hr) was 45%, the Percent conversion ([6]; 200 mg (22), 0-24 hr) was 59% and the “improvement of conversion (percent increase in conversion over placebo)” value ([6]; 200 mg, 0-4 hours) was 38%. The “improvement of conversion (percent increase in conversion over placebo)” value ([6]; 200 mg, 0-8 hours) was 96%, the “improvement of conversion (percent increase in conversion over placebo)” value ([6]; 200 mg, 0-24 hours) was 55% and the “Conversion of Atrial Flutter, Conversion, %” value (“Conversion … %” below) ([6]; 200 mg) was 50%. For the same compound, the Percent conversion ([6]; 300 mg (25), 0-4 hr) was 40%, the Percent conversion ([6]; 300 mg (25), 0-8 hr) was 52% and the Percent conversion ([6]; 300 mg (25), 0-24 hr) was 64%. The “improvement of conversion (percent increase in conversion over placebo)” value ([6]; 300 mg, 0-4 hours) was 207%, the “improvement of conversion (percent increase in conversion over placebo)” value ([6]; 300 mg, 0-8 hours) was 126% and the “improvement of conversion (percent increase in conversion over placebo)” value ([6]; 300 mg, 0-24 hours) was 68%. For the same compound, the “Conversion … %” value ([6]; 300 mg) was 75%, the Percent conversion ([6]; 400 mg (25), 0-4 hr) was 52% and the Percent conversion ([6]; 400 mg (25), 0-8 hr) was 76%. The Percent conversion ([6]; 400 mg (25), 0-24 hr) was 84%, the “improvement of conversion (percent increase in conversion over placebo)” value ([6]; 400 mg, 0-4 hours) was 300% and the “improvement of conversion (percent increase in conversion over placebo)” value ([6]; 400 mg, 0-8 hours) was 230%. For the same compound, the “improvement of conversion (percent increase in conversion over placebo)” value ([6]; 400 mg, 0-24 hours) was 121%, the “Conversion … %” value ([6]; 400 mg) was 75% and the conversion ([6]; at 12 hours) was “greater than 50%”. The conversion ([6]; at about 7 hours) was “greater than 40%”, the conversion ([6]; at about 16 hours) was ~60% and the “conversion to sinus rhythm of recent onset symptomatic AF/AFL, dose dependence” value ([6]; doses of 200, 300 and 400 mg) was “highly statistically significant dose dependent increase”. For the same compound, the “Adverse events: number of AEs reported” value ([7]; 200 mg (22)) was 8 AEs, the “Adverse events: number of SAEs” value ([7]; 200 mg (22)) was 1 SAE and the “Adverse events: subjects reporting, N (%)” value (“Adverse events … (%)” below) ([7]; 200 mg (22)) was 4 (18%) subjects. For the same compound, the “Adverse events: number of AEs reported” value ([7]; 300 mg (25)) was 12 AEs, the “Adverse events … (%)” value ([7]; 300 mg (25)) was 7 (28%) subjects and the “Adverse events: number of AEs reported” value ([7]; 400 mg (25)) was 23 AEs. The “Adverse events: number of SAEs” value ([7]; 400 mg (25)) was 1 SAE, the “Adverse events … (%)” value ([7]; 400 mg (25)) was 10 (40%) subjects and the “1:1 AFL post dose” value ([7]; 200, 300 and 400 mg) was “No 1:1 AFL seen post dose in any subject”. The proarrhythmia ([7]; 200, 300 and 400 mg) was “absence of proarrhythmia”, the tolerability ([7]; 200, 300 and 400 mg) was “well tolerated at all doses” and the “heart rate and systolic blood pressure” value ([8]; daily use over 7, 10, and 14 days, 75, 100, 125, and 150 mg a day) was “increased heart rate and systolic blood pressure”. For the same compound, the “heart rate and systolic blood pressure” value ([8]; multiple dosing, several subjects) was “dose-related increases in heart rate and systolic blood pressure”, the side-effects ([9]; daily repetitive dose of 50 mg) was “no side-effects should be expected” and the side-effects ([9]; higher doses) was “concentration difficulties, increase systolic blood pressure, asthenia, and a feeling of drug influence”.
